Experimental data from patent US20120157471A1, “BENZIMIDAZOLE DERIVATIVES” (PFIZER INC., priority 2009, published 2012).

What was measured:
[1] = biological target: T1, human Smo (amino acids 181-787) (Homo sapiens, UniProt Q99835); assay: Smo radioligand competition binding assay (displacement of 3H-PF-03451358 from HEK293 membranes); conditions: for inhibition at 0.05 µM: 0.05 μM test compound, displacement of 3H-PF-03451358, read-out: SMO % inh. @ 0.05 μM; for IC50: radioligand competition binding
T1 construct: expressed in transfected cells; membrane preparation
T1 sequence (Q99835 181-787): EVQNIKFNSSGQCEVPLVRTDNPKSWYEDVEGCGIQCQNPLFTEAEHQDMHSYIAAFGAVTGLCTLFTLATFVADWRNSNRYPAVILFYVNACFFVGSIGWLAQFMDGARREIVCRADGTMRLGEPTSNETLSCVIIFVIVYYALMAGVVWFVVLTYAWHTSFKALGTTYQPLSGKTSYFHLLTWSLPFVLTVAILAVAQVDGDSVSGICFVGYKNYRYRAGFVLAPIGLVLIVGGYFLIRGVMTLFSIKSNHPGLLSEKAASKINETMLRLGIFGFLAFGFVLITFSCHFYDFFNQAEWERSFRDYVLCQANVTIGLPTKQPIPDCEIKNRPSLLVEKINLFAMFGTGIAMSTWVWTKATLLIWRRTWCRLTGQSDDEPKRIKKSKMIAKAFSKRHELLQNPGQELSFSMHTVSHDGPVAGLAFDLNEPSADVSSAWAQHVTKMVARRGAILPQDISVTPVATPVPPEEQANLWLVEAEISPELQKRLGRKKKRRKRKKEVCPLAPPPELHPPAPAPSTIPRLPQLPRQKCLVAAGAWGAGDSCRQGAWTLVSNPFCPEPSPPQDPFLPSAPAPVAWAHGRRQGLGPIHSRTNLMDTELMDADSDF
In short: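 Displacement of 3 nM tritiated PF-03451358 measured by filtration and scintillation counting after 2 h at room temperature, using 40 μg/well HEK293 membranes bearing cell-surface Smo 181-787, pH 7.5 buffer. Specific binding defined against 30 μM unlabelled ligand; IC50 via variable-slope sigmoidal fit.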

[2] = system: Gli-Luc/MEF cells (Smo); assay: Gli-Luc/MEF assay (Shh-stimulated luciferase reporter under the Gli response element); type: cell-based, mouse; conditions: Mus musculus, MEF, 48 h
In short: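 IC50 derived from luminescence (Bright-Glo) after 48 h at 37° C, 5% CO2, with compound at […] (3-fold dilutions) added together with mouse Shh at 2 μg/mL final. Cells: MEFs from Gli-Luc transgenic mice.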

Row | Structure (SMILES) | inhibition at 0.05 µM [1] | IC50 [1] | IC50 [2]
1 | Cn1c(-c2ccnc(N3CCN(S(C)(=O)=O)CC3)c2)nc2ccccc21 [Example A-21, 1-methyl-2-{2-[4-(methylsulfonyl)piperazin-1-yl]pyridin-4-yl}-1H-benzimidazole] | 78% | 152 nM | 90 nM
2 | Cn1c(-c2cc(N3[C@@H]4CC[C@H]3CN(C(=O)CO)C4)ncc2Cl)nc2ccccc21 [Example A-207, 2-{(1R,5S)-8-[5-chloro-4-(1-methyl-1H-benzimidazol-2-yl)pyridin-2-yl]-3,8-diazabicyclo[3.2.1]oct-3-yl}-2-oxoethanol] | 94% | 10 nM | 17.3 nM
3 | CC(=O)N1CCN(c2cc(-c3nc4ccccc4n3C)c(F)cn2)CC1 [Example D-1, 2-[2-(4-acetylpiperazin-1-yl)-5-fluoropyridin-4-yl]-1-methyl-1H-benzimidazole] | 97% | 22 nM | 27 nM
4 | Cc1nnc2n1CCN(c1cc(-c3nc4ccccc4n3C)c(Cl)cn1)C2 [Example A-117, 7-[5-chloro-4-(1-methyl-1H-benzimidazol-2-yl)pyridin-2-yl]-3-methyl-5,6,7,8-tetrahydro[1,2,4]triazolo[4,3-a]pyrazine] | 68% |  | 101 nM
5 | CC1CC2(CCN1c1cc(-c3nc4ccccc4n3C)c(Cl)cn1)CNC(=O)C2 (stereo in doubt) [Example A-48, (5R,7S)-8-[5-chloro-4-(1-methyl-1H-benzimidazol-2-yl)pyridin-2-yl]-7-methyl-2,8-diazaspiro[4.5]decan-3-one] | 100% | 7 nM | 7 nM
6 | Cn1c(-c2nc(N3CCC(NS(C)(=O)=O)CC3)ccc2Cl)nc2ccccc21 [Example B-12, N-{1-[5-chloro-6-(1-methyl-1H-benzimidazol-2-yl)pyridin-2-yl]piperidin-4-yl}methanesulfonamide] | 100% | 10 nM | 1 nM
7 | Cn1c(-c2ccnc(N3CCC(S(C)(=O)=O)CC3)c2)nc2ccccc21 [Example A-10, 1-methyl-2-{2-[4-(methylsulfonyl)piperidin-1-yl]pyridin-4-yl}-1H-benzimidazole] | 80% | 95 nM | 38 nM
8 | COCCc1nnc2n1CCN(c1cc(-c3nc4ccccc4n3C)c(Cl)cn1)C2 [Example A-83, 7-[5-chloro-4-(1-methyl-1H-benzimidazol-2-yl)pyridin-2-yl]-3-(2-methoxyethyl)-5,6,7,8-tetrahydro[1,2,4]triazolo[4,3-a]pyrazine] | 91% | 49 nM | 23 nM
9 | CNC(=O)N1CCN(c2cc(-c3nc4ccccc4n3C)c(Cl)cn2)CC1 [Example A-3, 4-[5-chloro-4-(1-methyl-1H-benzimidazol-2-yl)pyridin-2-yl]-N-methylpiperazine-1-carboxamide] | 93% | 14.1 nM | 9 nM
10 | Cn1c(-c2cc(N3C[C@@H](CO)C(C)(CO)C3)ncc2Cl)nc2ccccc21 (stereo in doubt) [Example A-95, {(3R,4S)-1-[5-chloro-4-(1-methyl-1H-benzimidazol-2-yl)pyridin-2-yl]-3-methylpyrrolidine-3,4-diyl}dimethanol] | 86% | 70 nM | 38 nM
11 | Cc1nnc(C)n1C1CCN(c2cc(-c3nc4ccccc4n3C)c(Cl)cn2)CC1 [Example A-124, 2-{5-chloro-2-[4-(3,5-dimethyl-4H-1,2,4-triazol-4-yl)piperidin-1-yl]pyridin-4-yl}-1-methyl-1H-benzimidazole] | 59% |  | 52 nM
12 | Cn1c(-c2cc(N3CCCN(C4=NCCC(=O)N4)CC3)ncc2Cl)nc2ccccc21 [Example A-130, 2-{4-[5-chloro-4-(1-methyl-1H-benzimidazol-2-yl)pyridin-2-yl]-1,4-diazepan-1-yl}-5,6-dihydropyrimidin-4(3H)-one] | 53% |  | 129 nM
13 | Cn1c(-c2ccnc(N3CCCN(S(C)(=O)=O)CC3)c2)nc2ccccc21 [Example A-14, 1-methyl-2-{2-[4-(methylsulfonyl)-1,4-diazepan-1-yl]pyridin-4-yl}-1H-benzimidazole] | 84% | 31 nM | 84 nM
14 | Cn1c(-c2cc(N3CC(c4ncccn4)C3)ncc2Cl)nc2ccccc21 [Example A-131, 2-[5-chloro-2-(3-pyrimidin-2-ylazetidin-1-yl)pyridin-4-yl]-1-methyl-1H-benzimidazole] | 52% |  | 161 nM
15 | Cn1c(-c2cc(N3CCC(CS(C)(=O)=O)CC3)ncc2Cl)nc2cccnc21 [Example A-216, 2-(5-chloro-2-{4-[(methylsulfonyl)methyl]piperidin-1-yl}pyridin-4-yl)-3-methyl-3H-imidazo[4,5-b]pyridine] | 98% | 10 nM | 7 nM
16 | Cn1c(-c2nc(N3CCC(S(C)(=O)=O)CC3)ncc2Cl)nc2ccccc21 [Example C-14, 2-{5-chloro-2-[4-(methylsulfonyl)piperidin-1-yl]pyrimidin-4-yl}-1-methyl-1H-benzimidazole] | 90% | 43 nM | 37 nM
17 | Cn1c(-c2nc(N3CCC(NS(C)(=O)=O)CC3)ncc2Cl)nc2ccccc21 [Example C-9, N-{1-[5-chloro-4-(1-methyl-1H-benzimidazol-2-yl)pyrimidin-2-yl]piperidin-4-yl}methanesulfonamide] | 100% | 6 nM | 2 nM
18 | COC(=O)N1CCN(c2cc(-c3nc4ccccc4n3C)c(Cl)cn2)CC1 [Example A-2, methyl 4-[5-chloro-4-(1-methyl-1H-benzimidazol-2-yl)pyridin-2-yl]piperazine-1-carboxylate] | 87% | 17.2 nM | 3 nM
19 | COC(=O)N1CCN(c2cccc(-c3nc4ccccc4n3C)n2)CC1 [Example B-9, methyl 4-[6-(1-methyl-1H-benzimidazol-2-yl)pyridin-2-yl]piperazine-1-carboxylate] | 82% | 122 nM | 143 nM
20 | Cn1c(-c2ccnc(N3CCC(CS(C)(=O)=O)CC3)c2)nc2ccccc21 [Example A-12, 1-methyl-2-(2-{4-[(methylsulfonyl)methyl]piperidin-1-yl}pyridin-4-yl)-1H-benzimidazole] | 82% | 48 nM | 23 nM
21 | CC(=O)NCC1CCN(c2cc(-c3nc4ccccc4n3C)c(Cl)cn2)CC1 [Example A-87, N-({1-[5-chloro-4-(1-methyl-1H-benzimidazol-2-yl)pyridin-2-yl]piperidin-4-yl}methyl)acetamide] | 89% | 58 nM | 9 nM
22 | Cc1nnc(C2CCN(c3cc(-c4nc5ccccc5n4C)c(Cl)cn3)CC2)o1 [Example A-97, 2-{5-chloro-2-[4-(5-methyl-1,3,4-oxadiazol-2-yl)piperidin-1-yl]pyridin-4-yl}-1-methyl-1H-benzimidazole] | 85% | 32 nM | 25 nM
23 | Cn1c(-c2cc(N3CC(NS(=O)(=O)CCO)C3)ncc2Cl)nc2ccccc21 [Example A-200, N-{1-[5-chloro-4-(1-methyl-1H-benzimidazol-2-yl)pyridin-2-yl]azetidin-3-yl}-2-hydroxyethanesulfonamide] | 98% | 15 nM | 7.6 nM
24 | CN(CCS(C)(=O)=O)c1cc(-c2nc3ccccc3n2C)c(Cl)cn1 [Example A-72, 5-chloro-N-methyl-4-(1-methyl-1H-benzimidazol-2-yl)-N-[2-(methylsulfonyl)ethyl]pyridin-2-amine] | 94% | 25 nM | 12 nM
25 | Cn1c(-c2cc(N3CCC4(CCCC(=O)N4)CC3)ncc2Cl)nc2ccccc21 [Example A-57, 9-[5-chloro-4-(1-methyl-1H-benzimidazol-2-yl)pyridin-2-yl]-1,9-diazaspiro[5.5]undecan-2-one] | 97% | 20 nM | 7 nM
26 | Cn1c(-c2ccnc(N3CCC(N4CCOC4=O)CC3)c2)nc2ccccc21 [Example A-15, 3-{1-[4-(1-methyl-1H-benzimidazol-2-yl)pyridin-2-yl]piperidin-4-yl}-1,3-oxazolidin-2-one] | 53% | 404 nM | 180 nM
27 | Cn1c(-c2cc(N3CCC(O)(CN4CCOCC4)CC3)ncc2Cl)nc2ccccc21 [Example A-88, 1-[5-chloro-4-(1-methyl-1H-benzimidazol-2-yl)pyridin-2-yl]-4-(morpholin-4-ylmethyl)piperidin-4-ol] | 89% | 61 nM | 28 nM
28 | Cn1c(-c2cc(N3CCCn4cnc(CO)c4C3)ncc2Cl)nc2ccccc21 [Example A-110, {8-[5-chloro-4-(1-methyl-1H-benzimidazol-2-yl)pyridin-2-yl]-6,7,8,9-tetrahydro-5H-imidazo[1,5-a][1,4]diazepin-1-yl}methanol] | 74% | 161 nM | 93 nM
29 | Cn1c(-c2cc(N3CCOCC(Cc4cncnc4)C3)ncc2Cl)nc2ccccc21 (centres unmarked) [Example A-46, 2-{5-chloro-2-[6-(pyrimidin-5-ylmethyl)-1,4-oxazepan-4-yl]pyridin-4-yl}-1-methyl-1H-benzimidazole] | 101% | 14 nM | 9 nM
